{
  "source": "patent US5502037A",
  "about": "“Pro-cytotoxic drug conjugates for anticancer therapy” (priority 1993, dated 1996)",
  "origin": "cited, not measured here",
  "key": {"[1]": {"details": "NBP test, relative to NNM; taken from Brock, 1976"}, "[2]": {"system": "mouse Yoshida ascites sarcoma cells", "details": "for In vitro activities: Cytotoxicity: cu = cytostatic units, Yoshida ascites sarcoma cells, Brock, 1976"}, "tumor cells": {"system": "tumor cells", "details": "for activity as the result of in vivo metabolism: once activated / metabolized"}},
  "note": "Where two headings read alike, the source gives them in different places.",
  "data": [
    {"smiles": "C=CC=O", "note": "[Acrolein, acrolein]", "values": [
      {"measurement": "In vitro activities: Alkylating", "setting": "[1]", "result": 1.9, "unit": "%"},
      {"measurement": "In vitro activities: Cytotoxicity", "setting": "[2]", "result": 0.4, "unit": "CU/μmol"},
      {"measurement": "In vivo activities: LD50", "setting": "Yoshida ascites sarcoma; lethal dose, rat, Brock, 1976", "result": 7.3, "unit": "mg/kg"},
      {"measurement": "D50 Index (LD50/CD50)", "setting": "Yoshida ascites sarcoma; rat, in vivo", "result": "~ 3"},
      {"measurement": "In vivo activities: CD50", "setting": "Yoshida ascites sarcoma; rat, in vivo", "result": "> 2.15", "unit": "mg/kg"}
    ]},
    {"smiles": "O=P1(N(CCCl)CCCl)NCCCO1", "note": "(stereo not drawn) [CP, cyclophosphamide]", "values": [
      {"measurement": "In vitro activities: Alkylating", "setting": "[1]", "result": 1.3, "unit": "%"},
      {"measurement": "activity as the result of in vivo metabolism", "setting": "tumor cells", "result": "highly cancerotoxic"},
      {"measurement": "biologic activity in vitro and in vivo before metabolism", "setting": "tumor cells; initially, in vitro and in vivo", "result": "only slight biologic activity"},
      {"measurement": "activity in the in vitro Yoshida cell cytotoxicity test (in words)", "setting": "[2]; comment on Table II", "result": "virtually inactive"},
      {"measurement": "In vitro activities: Cytotoxicity", "setting": "[2]", "result": "< 0.03", "unit": "CU/μmol"},
      {"measurement": "activity in vivo against the rat Yoshida ascites sarcoma (in words)", "setting": "Yoshida ascites sarcoma; comment on Table II", "result": "highly active therapeutic agent"},
      {"measurement": "In vivo activities: CD50", "setting": "Yoshida ascites sarcoma; curative dose, Yoshida ascites sarcoma in rat, Brock, 1976", "result": 1.25, "unit": "mg/kg"},
      {"measurement": "D50 Index (LD50/CD50)", "setting": "Yoshida ascites sarcoma; rat, in vivo", "result": 175},
      {"measurement": "In vivo activities: LD50", "setting": "Yoshida ascites sarcoma; rat, in vivo", "result": 220, "unit": "mg/kg"}
    ]},
    {"smiles": "O=P1(NCCCl)OCCCN1CCCl", "note": "(stereo not drawn) [isophosphamide]", "values": [
      {"measurement": "activity as the result of in vivo metabolism", "setting": "tumor cells", "result": "highly cytotoxic in vivo to tumor cells once activated"}
    ]}
  ]
}
